≈ marks a conversion by molar mass, not a printed value. Calls of active or inactive are those of the source. The calls are words filed in the database; no cut-off is given here.
Assays:
HepG2 = experiment: Cytotoxicity against human HepG2 cells; assay type: cell-based
[1] = AUClast in mouse at 3 mg/kg, iv; assay type: ADME, organism-based; design: dose 3 mg/kg, time 0 - last, route intravenous; details: in vivo
[2] = Volume of distribution at steady state in mouse at 3 mg/kg, iv; assay type: ADME, organism-based; details: in vivo, read-out: Vdss
Vero 76 = experiment: Cytotoxicity against African green monkey Vero 76 cells; assay type: cell-based; details: Chlorocebus sabaeus
Cryptococcus neoformans = experiment: Antifungal activity against Cryptococcus neoformans by broth macrodilution method; assay type: functional
[3] = Terminal half-life in mouse at 3 mg/kg, iv; assay type: ADME, organism-based; details: in vivo, read-out: beta t1/2 (converted)
Aspergillus fumigatus [4] = experiment: Antifungal activity against Aspergillus fumigatus by broth macrodilution method; assay type: functional
Jurkat = experiment: Immunosuppressive activity in PMA/ionomycin stimulated human Jurkat T cells assessed as suppression of IL2 production pretreated for 15 to 30 mins followed by PMA/ionomycin addition measured after 18 to 20 hrs by ELISA; assay type: cell-based
[5] = molecular target: T1, Peptidyl-prolyl cis-trans isomerase FKBP1A (Homo sapiens, UniProt P62942); experiment: (§1) Antagonist activity at recombinant human N-terminal His6-tagged FKBP12 expressed in Escherichia coli assessed as inhibition of FKBP12 binding to calcineurin at 5 uL using […] pretreated for 1 hr followed by substrate addition measured after 1 hr by biomol green dye based spectrophotometric method
[6] = Clearance in mouse at 3 mg/kg, iv; assay type: ADME, organism-based; details: in vivo
[7] = Antagonist activity at Aspergillus fumigatus FKBP12 measured after 30 mins by fluorescein labelled SLF tracer based fluorescence polarization assay
PBMC [8] = experiment: Permeability across human PBMC at 1 uM; assay type: ADME, cell-based
[9] = Tmax in mouse at 10 mg/kg, po; assay type: ADME, organism-based; details: in vivo
[10] = Cmax in mouse at 10 mg/kg, po; assay type: ADME, organism-based; design: dose 10 mg/kg, route oral; details: in vivo
PBMC [11] = experiment: Antiproliferative activity against concanavalin A stimulated human PBMC at 1 to 2 ug/ml measured after 72 hrs by CellTiter-Glo assay; assay type: cell-based
[12] = molecular target: T1, Peptidyl-prolyl cis-trans isomerase FKBP1A; experiment: Antagonist activity at human FKBP12 measured after 30 mins by fluorescein labelled SLF tracer based fluorescence polarization assay
PBMC [13] = experiment: Reversal of FK506-induced inhibition of cell proliferation in concanavalin A stimulated human PBMC at 1 uM measured after 72 hrs by CellTiter-Glo assay relative to control; assay type: functional; design: scale not given: the % may be the effect or the level left
[14] = AUClast in mouse at 10 mg/kg, po; assay type: ADME, organism-based; design: dose 10 mg/kg, time 0 - last, route oral; details: in vivo
Aspergillus fumigatus [15] = experiment: Antifungal activity against Aspergillus fumigatus up to 25 ug/ml measured after 48 hrs by broth dilution method; assay type: functional
Aspergillus fumigatus [16] = experiment: Antifungal activity against Aspergillus fumigatus assessed as spore germination at 12.5 ug/ml measured after 48 hrs in presence of FK506 by broth dilution method relative to control; assay type: functional
[17] = molecular target: T1, Peptidyl-prolyl cis-trans isomerase FKBP1A; experiment: as §1, with “of FK506 mediated” for “of”, “calcineurin” for “calcineurin at 5 uL”

T1 sequence (P62942 whole entry): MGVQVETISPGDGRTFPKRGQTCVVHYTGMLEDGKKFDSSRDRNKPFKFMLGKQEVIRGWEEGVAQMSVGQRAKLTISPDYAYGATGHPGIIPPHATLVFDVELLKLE

Row | AUC(0-t) [1] | Vd [2] | half-life [3] | IC50 (Jurkat) | inhibition [5] | clearance [6] | IC50 [7] | permeability (PBMC [8]) | IC50 [12] | Compound | IC50 (HepG2) | IC50 (Vero 76) | Activity (PBMC [11]) | Activity (PBMC [13]) | Activity (Aspergillus fumigatus [15]) | Activity (Aspergillus fumigatus [16]) | further results
1 | 1620 ng·h/mL | 1.8 L/kg | 57.1 min | 0.36 µM | inactive | 29.5 mL/min/kg | 0.0185 µM |  |  | C=CC[C@@H]1/C=C(\C)C[C@H](C)C[C@H](OC)[C@H]2O[C@@](O)(C(=O)C(=O)N3CCCC[C@H]3C(=O)O[C@H](/C(C)=C/[C@@H]3CC[C@@H](O)[C@H](OC)C3)[C@H](C)[C@@H](O)CC1=O)[C@H](C)C[C@@H]2OC [TACROLIMUS ANHYDROUS] | > 100 µM | > 100 µM |  |  |  |  | MIC (Cryptococcus neoformans): 0.01 µg/mL (≈ 0.0124 µM); MIC (Aspergillus fumigatus [4]): 0.025 µg/mL (≈ 0.0311 µM)
2 | 2110 ng·h/mL | 1.17 L/kg | 47.6 min | > 10 µM | inactive | 22.8 mL/min/kg |  | 100% | 0.027 µM | CO[C@H]1C[C@@H](C)C/C(C)=C/[C@@H](CCCSCCO)C(=O)C[C@H](O)[C@@H](C)[C@@H](/C(C)=C/[C@@H]2CC[C@@H](O)[C@H](OC)C2)OC(=O)[C@@H]2CCCCN2C(=O)C(=O)[C@]2(O)O[C@H]1[C@@H](OC)C[C@H]2C | > 100 µM | > 100 µM | Non-Toxic | 96.5% | inactive | 37.5% | Tmax [9]: 30 min; Cmax [10]: 1640 ng/mL; AUC(0-t) [14]: 2710 ng·h/mL
3 |  |  |  | > 10 µM | inactive |  | 0.0168 µM | 100% | 0.0126 µM | CO[C@H]1C[C@@H](C)C/C(C)=C/[C@@H](CC(=O)N2CCN(C)CC2)C(=O)C[C@H](O)[C@@H](C)[C@@H](/C(C)=C/[C@@H]2CC[C@@H](O)[C@H](OC)C2)OC(=O)[C@@H]2CCCCN2C(=O)C(=O)[C@]2(O)O[C@H]1[C@@H](OC)C[C@H]2C | > 100 µM | > 100 µM | Non-Toxic | 102.8% | inactive | 43.1% | IC50 [17]: 1.1 µM
